Holding throughout (assay type): functional
Assay [1] deals with SUD4. Nature of the assay: Growth inhibition of human SU-DHL-4 cells at 0.033 uM incubated for 3 days (reference value: 2%). As to conditions: SU-DHL-4, 72 h, time 3 day, read-out: GI.
Assay [2] has as its system SUD4. Put plainly: Growth inhibition of human SU-DHL-4 cells at 0.017 uM incubated for 3 days (reference value: 2%). As to conditions: SU-DHL-4, 72 h, time 3 day, read-out: GI.
In assay [3] the test system is SUD4. Nature of the assay: Growth inhibition of human SU-DHL-4 cells at 0.003 uM incubated for 3 days (reference value: 2%). As to conditions: SU-DHL-4, 72 h, time 3 day, read-out: GI.
The test system of assay [4] is SUD4. Nature of the assay: Growth inhibition of human SU-DHL-4 cells at 0.33 uM incubated for 3 days (reference value: 2%). As to conditions: SU-DHL-4, 72 h, time 3 day, read-out: GI.
Assay [5] concerns SUD4. Put plainly: Growth inhibition of human SU-DHL-4 cells at 0.17 uM incubated for 3 days (reference value: 2%). As to conditions: SU-DHL-4, 72 h, time 3 day, read-out: GI.
For assay [6], the system named is SUD4. Put plainly: Growth inhibition of human SU-DHL-4 cells at 0.017 uM incubated for 3 days (reference value: -1%). As to conditions: SU-DHL-4, 72 h, time 3 day, read-out: GI.
In assay [7] the test system is SUD4. Nature of the assay: Growth inhibition of human SU-DHL-4 cells at 0.033 uM incubated for 3 days (reference value: -1%). As to conditions: SU-DHL-4, 72 h, time 3 day, read-out: GI.
For assay [8], the system named is SUD4. Nature of the assay: Growth inhibition of human SU-DHL-4 cells at 0.003 uM incubated for 3 days (reference value: -1%). As to conditions: SU-DHL-4, 72 h, time 3 day, read-out: GI.
For assay [9], the system named is SUD4. Nature of the assay: Growth inhibition of human SU-DHL-4 cells at 0.33 uM incubated for 3 days (reference value: -1%). As to conditions: SU-DHL-4, 72 h, time 3 day, read-out: GI.
In assay [10] the test system is SUD4. Put plainly: Growth inhibition of human SU-DHL-4 cells at 0.17 uM incubated for 3 days (reference value: -1%). As to conditions: SU-DHL-4, 72 h, time 3 day, read-out: GI.
In assay [11] the test system is OCI-Ly10. Put plainly: Growth inhibition of human OCILY10 cells at 0.17 uM incubated for 3 days (Rvb= -2%). As to conditions: OCI-Ly10, 72 h, time 3 day, read-out: GI.
In assay [12] the test system is OCI-Ly10. Put plainly: Growth inhibition of human OCILY10 cells at 0.33 uM incubated for 3 days (reference value: -2%). As to conditions: OCI-Ly10, 72 h, time 3 day, read-out: GI.
The test system of assay [13] is OCI-Ly10. Nature of the assay: Growth inhibition of human OCILY10 cells at 0.003 uM incubated for 3 days (reference value: -2%). As to conditions: OCI-Ly10, 72 h, time 3 day, read-out: GI.
For assay [14], the system named is OCI-Ly10. Nature of the assay: Growth inhibition of human OCILY10 cells at 0.017 uM incubated for 3 days (reference value: -2%). As to conditions: OCI-Ly10, 72 h, time 3 day, read-out: GI.
Assay [15] relates to OCI-Ly10. Nature of the assay: Growth inhibition of human OCILY10 cells at 0.033 uM incubated for 3 days (reference value: -2%). As to conditions: OCI-Ly10, 72 h, time 3 day, read-out: GI.
Assay [16] has as its system OCI-Ly10. Put plainly: Growth inhibition of human OCILY10 cells at 1.7 uM incubated for 3 days (Rvb= -3%). As to conditions: OCI-Ly10, 72 h, time 3 day, read-out: GI.
The test system of assay [17] is OCI-Ly10. Nature of the assay: Growth inhibition of human OCILY10 cells at 3.3 uM incubated for 3 days (Rvb= -3%). As to conditions: OCI-Ly10, 72 h, time 3 day, read-out: GI.
Assay [18] concerns OCI-Ly10. Put plainly: Growth inhibition of human OCILY10 cells at 0.003 uM incubated for 3 days (Rvb= -3%). As to conditions: OCI-Ly10, 72 h, time 3 day, read-out: GI.
Assay [19] relates to OCI-Ly10. Nature of the assay: Growth inhibition of human OCILY10 cells at 0.017 uM incubated for 3 days (Rvb= -3%). As to conditions: OCI-Ly10, 72 h, time 3 day, read-out: GI.
The test system of assay [20] is OCI-Ly10. Nature of the assay: Growth inhibition of human OCILY10 cells at 0.033 uM incubated for 3 days (Rvb= -3%). As to conditions: OCI-Ly10, 72 h, time 3 day, read-out: GI.

On to `CC#CC(=O)N1CCC[C@H]1c1nc(-c2ccc(C(=O)Nc3ccccn3)cc2)c2c(N)nccn12` [ACALABRUTINIB], for which the inhibition of growth at 0.033 µM in the assay on SUD4 [1] was 2%; in the assay with SUD4 [7], -3%; in the assay on OCI-Ly10 [15] it was 92%; in the assay on OCI-Ly10 [20], 88%. For the same compound, the inhibition of growth at 0.017 µM was 2% in the assay with SUD4 [2], -1% in the assay with SUD4 [6], 77% in the assay on OCI-Ly10 [14] and 71% in the assay with OCI-Ly10 [19]. The inhibition of growth at 0.003 µM with SUD4 [3] was 2%; in the assay with SUD4 [8] it was -1%; in the assay with OCI-Ly10 [13], 16%; in the assay on OCI-Ly10 [18], 13%. Further, the inhibition of growth at 0.33 µM is 2% with SUD4 [4], -1% in the assay on SUD4 [9] and 115% with OCI-Ly10 [12]. For the same compound, the figures for the inhibition of growth at 0.17 µM in the assay with SUD4 [5], with SUD4 [10] and in the assay with OCI-Ly10 [11] were 2%, -3% and 111%, respectively. In addition, the inhibition of growth at 1.7 µM in the assay with OCI-Ly10 [16] was 108%. Also, the inhibition of growth at 3.3 µM in the assay on OCI-Ly10 [17] is 113%.

Values taken from ChEMBL document CHEMBL5244269, “Improving metabolic stability and removing aldehyde oxidase liability in a 5-azaquinazoline series of IRAK4 inhibitors” (Bioorg Med Chem, 2020).
